According to patent US20160184271A1, “Amino Acid Composition for Use in the Treatment of a PDD” (N.V. Nutricia, priority 2013, published 2016):

Molecular target: mTOR (Homo sapiens, UniProt P42345)
Test: in vitro effect of amino acids on mTOR
Format: biochemical
Conditions: 1 mM rapamycin compared with 10 mM lysine

SMILES | concentration having a comparable inhibitory effect on mTor [mM]
NCCCC[C@H](N)C(=O)O [lysine] | 10

Same assay, conditions: in vitro

SMILES | effect on mTOR (inhibitory or activating)
CC(C)C[C@H](N)C(=O)O [leucine] | mTOR activating effect
NCC(=O)O [glycine] | inhibitory effect of mTOR
CC[C@H](C)[C@H](N)C(=O)O [isoleucine] | mTOR activating effect
CC(C)[C@H](N)C(=O)O [valine] | mTOR activating effect
N[C@@H](Cc1ccccc1)C(=O)O [Phenylalanine, phenylalanine] | inhibitory effect of mTOR
